In US9546179B2, “Heterocycle amido alkyloxy substituted quinazoline derivative and use thereof” (priority 2011, dated 2017):

Target: T1, receptor tyrosine kinase EGFR (Homo sapiens, UniProt P00533)
T1 construct: purchased Shanghai 3bio Technology Co., Ltd. Lot No. 4018780925
Experiment: Inhibitory effect on receptor tyrosine kinase EGFR (ELISA, Poly(Glu, Tyr)4:1, PY99 antibody)
Format: biochemical
Details: ATP 4 μM, 1 hour at 37° C.
Protocol: Poly(Glu, Tyr)4:1 was diluted into 100 μg/ml by PBS without potassium. Enzyme label plate was coated with 37 μl/well at 37° C. overnight,
The liquid in the wells was removed. The plate was rinsed by T-PBS for 5 minutes, and dried at 37° C. after repeated 3 times.
The testing sample was diluted to the concentration concerned by reaction buffer solution, and added into the wells of the coated enzyme label plate. The concentration diluted should realize 1.0000 μg/ml, 0.1250 μg/ml, 0.0156 μg/ml, 0.00195 μg/ml and 0.00024 μg/ml in the 100 μl reaction.
Adding in ATP solution (4 μM of final concentration) diluted by reaction buffer solution,
Finally, the tyrosine kinase diluted by reaction buffer solution was added, and forming the reaction with 100 μl total volume.
Meanwhile, negative control wells and enzyme-free control wells were prepared. The reaction was kept in the dark wet box for 1 hour at 37° C. The plate was rinsed by T-PBS for three times after the reaction ended, and blocked by 1% BSA […] for 30 min, and then, PY99 antibody (1:1000 diluted by 0.05% PBST with 1% BSA) was added in 100 μl/well. After incubated at 37° C. for 30 minutes, the plate was rinsed by T-PBS for three times, and the goat anti-mouse IgG marked with HRP (1 mg/ml 1:1000 diluted by 0.05% PBST with 1% BSA) was then added in 100 μl/well. After incubated at 37° C. for 30 minutes, the plate was rinsed by T-PBS for three times.
Colorimetric solution OPD was added in 100 μl/well for 20 minutes' reaction in the dark side at the room temperature. Colorimetric substrate solution OPD was the solution of 0.1 mol/L citric acid-disodium hydrogen phosphate buffer (pH 5.0) with 20 mmol/L OPD and 12 mmol/L H2O2 (freshly prepared when using).
50 μl of 2M H2SO4 (2 mol/L sulfuric acid containing 0.1 mol/L sodium sulfate) was added in to terminate the reaction, and the A492 value was read with adjustable wavelength micro late enzyme-labeling instrument VERSAmax.
The inhibition rate of samples is calculated by the following formula: […]

T1 sequence (P00533 25-1210): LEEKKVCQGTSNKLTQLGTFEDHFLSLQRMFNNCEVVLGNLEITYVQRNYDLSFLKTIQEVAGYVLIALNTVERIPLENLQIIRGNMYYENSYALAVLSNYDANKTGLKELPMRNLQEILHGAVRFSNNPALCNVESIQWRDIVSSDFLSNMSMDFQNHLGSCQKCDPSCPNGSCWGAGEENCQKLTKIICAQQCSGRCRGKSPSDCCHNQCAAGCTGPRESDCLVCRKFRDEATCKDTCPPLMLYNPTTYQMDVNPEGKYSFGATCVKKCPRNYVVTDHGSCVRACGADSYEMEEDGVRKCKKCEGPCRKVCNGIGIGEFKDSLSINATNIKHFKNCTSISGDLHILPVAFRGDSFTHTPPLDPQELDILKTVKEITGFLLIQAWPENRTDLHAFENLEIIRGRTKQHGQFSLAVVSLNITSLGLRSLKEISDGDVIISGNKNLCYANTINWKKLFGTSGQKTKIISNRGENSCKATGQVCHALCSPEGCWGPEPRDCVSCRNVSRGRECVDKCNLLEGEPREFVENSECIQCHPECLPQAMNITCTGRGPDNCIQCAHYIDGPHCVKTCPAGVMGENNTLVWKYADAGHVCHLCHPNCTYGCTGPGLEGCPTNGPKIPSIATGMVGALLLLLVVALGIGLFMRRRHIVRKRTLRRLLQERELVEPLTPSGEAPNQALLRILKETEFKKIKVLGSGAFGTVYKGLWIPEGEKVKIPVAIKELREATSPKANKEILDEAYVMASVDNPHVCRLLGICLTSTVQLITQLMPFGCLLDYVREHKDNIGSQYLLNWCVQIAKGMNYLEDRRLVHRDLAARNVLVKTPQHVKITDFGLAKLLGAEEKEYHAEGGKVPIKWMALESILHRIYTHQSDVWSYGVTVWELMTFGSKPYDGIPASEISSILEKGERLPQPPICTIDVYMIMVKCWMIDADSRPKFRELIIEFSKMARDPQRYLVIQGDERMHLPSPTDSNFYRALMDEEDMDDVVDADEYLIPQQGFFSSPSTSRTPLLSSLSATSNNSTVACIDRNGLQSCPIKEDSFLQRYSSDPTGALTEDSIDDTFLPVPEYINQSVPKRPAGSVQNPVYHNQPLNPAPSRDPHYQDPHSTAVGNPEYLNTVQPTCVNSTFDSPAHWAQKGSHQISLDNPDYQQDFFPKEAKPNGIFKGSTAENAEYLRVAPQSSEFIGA

IC50	Compound
10 to 100 nM	C#Cc1cccc(Nc2ncnc3cc(OC)c(OCCCN4CC5(CCOCC5)C4)cc23)c1 [Example 39, 4-(3′-ethynylphenylamino)-6-[3-(7-oxa-2-azaspiro[3.5]nonane-2-yl)-propoxy]-7-methoxyquinazoline]
10 to 100 nM	C#Cc1cccc(Nc2ncnc3cc(OC)c(OCCCN4CCC5(CCOC5)C4)cc23)c1 (stereo not shown) [Example 40, 4-(3′-ethynylphenylamino)-6-[3-(2-oxa-7-azaspiro[4.4]-nonane-7-yl)-propoxy]-7-methoxyquinazoline]
100 to 1000 nM	C#Cc1cccc(Nc2ncnc3cc(OC)c(OCCCN4CCC5(CCOCC5)C4)cc23)c1 [Example 41, 4-(3′-ethynylphenylamino)-6-[3-(8-oxa-2-azaspiro[4.5]decane-2-yl)-propoxy]-7-methoxyquinazoline]
100 to 1000 nM	C#Cc1cccc(Nc2ncnc3cc(OC)c(OCCCN4C5CCC4COC5)cc23)c1 [Example 42, 4-(3′-ethynylphenylamino)-6-[3-(3-oxa-8-azabicyclo[3.2.1]octane-8-yl)-propoxy]-7-methoxyquinazoline]
10 to 100 nM	C#Cc1cccc(Nc2ncnc3cc(OC)c(OCCCN4CCC5(CC4)CNC(=O)C5)cc23)c1 [Example 43, 4-(3′-ethynylphenylamino)-6-[3-(2,8-diazaspiro[4.5]decane-3-ketone-8-yl)-propoxy]-7-methoxyquinazoline]
10 to 100 nM	C#Cc1cccc(Nc2ncnc3cc(OC)c(OCCCN4CCC5(CC4)CCN(C)C5=O)cc23)c1 [Example 44, 4-(3′-ethynylphenylamino)-6-[3-(2-methyl-2,8-diazaspiro[4.5]decane-3-ketone-8-yl)propoxy]-7-methoxyquinazoline]
10 to 100 nM	C#Cc1cccc(Nc2ncnc3cc(OC)c(OCCCN4CC5(CNC(=O)C5)C4)cc23)c1 [Example 45, 4-(3′-ethynylphenylamino)-6-[3-(2,6-diazaspiro[3.4]octane-7-ketone-2-yl)-propoxy]-7-methoxyquinazoline]
10 to 100 nM	C#Cc1cccc(Nc2ncnc3cc(OC)c(OCCCN4CCC5(CC4)CNC(=O)O5)cc23)c1 [Example 46, 4-(3′-ethynylphenylamino)-6-[3-(1-oxa-3,8-diazaspiro[4.5]decane-2-ketone-8-yl)-propoxy]-7-methoxyquinazoline]
10 to 100 nM	C#Cc1cccc(Nc2ncnc3cc(OC)c(OCCCN4CCC5(C4)CN(C)C(=O)O5)cc23)c1 (stereo not shown) [Example 47, 4-(3′-ethynylphenylamino)-6-[3-(3-methyl-1-oxa-3,7-diazaspiro[4.4]nonane-2-ketone-7-yl)-propoxy]-7-methoxyquinazoline]
0.1 to 10 nM	C#Cc1cccc(Nc2ncnc3cc(OC)c(OCCCN4CCC5(CCN(C(C)=O)C5)C4)cc23)c1 (stereo not shown) [Example 51, 4-(3′-ethynylphenylamino)-6-[3-(7-acetyl-2,7-diazaspiro[4.4]-nonane-2-yl)-propoxy]-7-methoxyquinazoline]
10 to 100 nM	COc1cc2ncnc(Nc3ccc(F)c(Cl)c3)c2cc1OCCN1CC2(CCOCC2)C1 [Example 53, 4-(3′-chloro-4′-fluorophenylamino)-6-[3-(7-oxa-2-azaspiro[3.5]nonane-2-yl)-oxethyl]-7-methoxyquinazoline]
100 to 1000 nM	COc1cc2ncnc(Nc3ccc(F)c(Cl)c3)c2cc1OCCN1CCC2(CCNC2=O)C1 (stereo not shown) [Example 55, 4-(3′-chloro-4′-fluorophenylamino)-6-[2-(2,7-diazaspiro[4.4]-nonane-1-ketone-7-yl)-oxethyl]-7-methoxyquinazoline]
> 1000 nM	COc1cc2ncnc(Nc3ccc(F)c(Cl)c3)c2cc1OCCN1CCC2(CC1)CC(=O)N(C)C2 [Example 56, 4-(3′-chloro-4′-fluorophenylamino)-6-[2-(2-methyl-2,8-diazaspiro[4.5]decane-2-ketone-8-yl)-oxethyl]-7-methoxyquinazoline]
100 to 1000 nM	COc1cc2ncnc(Nc3ccc(F)c(Cl)c3)c2cc1OCCN1CCC2(CC1)CNC(=O)O2 [Example 58, 4-(3′-chloro-4′-fluorophenylamino)-6-[2-(1-oxa-3,8-diazaspiro[4.5]decane-2-ketone-8-yl)-oxethyl]-7-methoxyquinazoline]
10 to 100 nM	COc1cc2ncnc(Nc3ccc(F)c(Cl)c3)c2cc1OCCN1CCC2(C1)CN(C)C(=O)O2 (stereo not shown) [Example 59, 4-(3′-chloro-4′-fluorophenylamino)-6-[2-(3-methyl-1-oxa-3,7-diazaspiro[4.4]nonane-2-ketone-7-yl)-oxethyl]-7-methoxyquinazoline]
100 to 1000 nM	COc1cc2ncnc(Nc3ccc(F)c(Cl)c3)c2cc1OCCN1CC2(CNC(=O)O2)C1 [Example 60, 4-(3′-chloro-4′-fluorophenylamino)-6-[2-(5-oxa-2,7-diazaspiro[3.4]octane-6-ketone-2-yl)-oxethyl]-7-methoxyquinazoline]

IC50	Compound
10 to 100 nM	COc1cc2ncnc(Nc3ccc(F)c(Cl)c3)c2cc1OCCN1CC2(C1)CN(C)C(=O)O2 [Example 61, 4-(3′-chloro-4′-fluorophenylamino)-6-[2-(7-methyl-5-oxa-2,7-diazaspiro[3.4]octane-6-ketone-2-yl)-oxethyl]-7-methoxyquinazoline]
100 to 1000 nM	COc1cc2ncnc(Nc3ccc(F)c(Cl)c3)c2cc1OCCN1CC2(COC2)C1 [Example 62, 4-(3′-chloro-4′-fluorophenylamino)-6-[2-(2-oxa-6-azaspiro[3.3]heptane-6-yl)-oxethyl]-7-methoxyquinazoline]
100 to 1000 nM	COc1cc2ncnc(Nc3ccc(F)c(Cl)c3)c2cc1OCCN1CCC2(CC1)CNC(=O)C2 [Example 63, 4-(3′-chloro-4′-fluorophenylamino)-6-[2-(2,8-diazaspiro[4.5]decane-3-ketone-8-yl)-oxethyl]-7-methoxyquinazoline]
10 to 100 nM	COc1cc2ncnc(Nc3cc(Cl)ccc3F)c2cc1OCCCN1CCC2(CCN(C)C2)C1 (stereo not shown) [Example 64, 4-(5′-chloro-22′-fluorophenylamino)-6-[3-(7-methyl-2,7-diazaspiro[4.4]nonane-2-yl)-propoxy]-7-methoxyquinazoline]
10 to 100 nM	COc1cc2ncnc(Nc3cc(Cl)ccc3F)c2cc1OCCCN1CCC2(COC2)C1 [Example 65]
10 to 100 nM	C#Cc1cccc(Nc2ncnc3cc(OC)c(OCCCN4CCC5(CCN(C)C5)C4)cc23)c1 (stereo not shown) [Example 68, 4-(3′-ethynylphenylamino)-6-[3-(7-methyl-2,7-diazaspiro[4.4]nonyl)-propoxy]-7-methoxyquinazoline]
10 to 100 nM	C#Cc1cccc(Nc2ncnc3cc(OC)c(OCCCN4CCC5(CCNC5=O)C4)cc23)c1 (stereo not shown) [Example 70, 4-(3′-ethynylphenylamino)-6-[3-(2,7-diazaspiro[4.4]-nonane-1-ketone-7-yl)-propoxy]-7-methoxyquinazoline]
10 to 100 nM	C#Cc1cccc(Nc2ncnc3cc(OC)c(OCCCN4CCC5(CCN(C)C5=O)C4)cc23)c1 (stereo not shown) [Example 71, 4-(3′-ethynylphenylamino)-6-[3-(2-methyl-2,7-diazaspiro[4.4]-nonane-1-ketone-7-yl)-propoxy]-7-methoxyquinazoline]
10 to 100 nM	C#Cc1cccc(Nc2ncnc3cc(OC)c(OCCCN4CCC5(CCNC5=O)CC4)cc23)c1 [Example 72, 4-(3′-ethynylphenylamino)-6-[3-(2,8-diazaspiro[4.5]decane-1-ketone-8-yl)-propoxy]-7-methoxyquinazoline]
10 to 100 nM	C#Cc1cccc(Nc2ncnc3cc(OC)c(OCCCN4CCC5(CC4)CC(=O)N(C)C5)cc23)c1 [Example 73, 4-(3′-ethynylphenylamino)-6-[3-(2-methyl-2,8-diazaspiro[4.5]decane-3-ketone-8-yl)-propoxy]-7-methoxyquinazoline]
10 to 100 nM	C#Cc1cccc(Nc2ncnc3cc(OC)c(OCCCN4CCC5(CCC(=O)N5)CC4)cc23)c1 [Example 74, 4-(3′-ethynylphenylamino)-6-[3-(1,8-diazaspiro[4.5]decane-2-ketone-8-yl)-propoxy]-7-methoxyquinazoline]
10 to 100 nM	C#Cc1cccc(Nc2ncnc3cc(OC)c(OCCCN4CCC5(COC5)C4)cc23)c1 [Example 75, 4-(3′-ethynylphenylamino)-6-[3-(2-oxa-6-azaspiro[3.4]octane-6-yl)-propoxy]-7-methoxyquinazoline]
10 to 100 nM	COc1cc2ncnc(Nc3ccc(F)c(Cl)c3)c2cc1OCCCN1CCC2(CCN(C)C2)C1 (stereo not shown) [Example 76, 4-(3′-chloro-4′-fluorophenylamino)-6-[3-(7-methyl-2,7-diazaspiro[4.4]nonane-2-yl)-propoxy]-7-methoxyquinazoline]
> 1000 nM	COc1cc2ncnc(Nc3ccc(F)c(Cl)c3)c2cc1OCCCN1CCC2(CCCN(C(=O)OC(C)(C)C)C2)C1 (stereo not shown) [Example 77, 4-(3′-chloro-4′-4-fluorophenylamino)-6-[3-(7-tertbutyloxycarbonyl-2,7-diazaspiro[4.5]decane-2-yl)-propoxy]-7-methoxyquinazoline]
0.1 to 10 nM	COc1cc2ncnc(Nc3ccc(F)c(Cl)c3)c2cc1OCCCN1CCC2(CC1)CNC(=O)C2 [Example 79]
